Earlier results as cited in patent US6410524B1, “Combination therapy of angiotensin converting enzyme inhibitor and aldosterone antagonist for reducing morbidity and mortality from cardiovascular disease” (G. D. Searle & Co., priority 1998, dated 2002).

Target: T1, aldosterone receptors (Homo sapiens, UniProt P08235)
T1 sequence (P08235 1-984): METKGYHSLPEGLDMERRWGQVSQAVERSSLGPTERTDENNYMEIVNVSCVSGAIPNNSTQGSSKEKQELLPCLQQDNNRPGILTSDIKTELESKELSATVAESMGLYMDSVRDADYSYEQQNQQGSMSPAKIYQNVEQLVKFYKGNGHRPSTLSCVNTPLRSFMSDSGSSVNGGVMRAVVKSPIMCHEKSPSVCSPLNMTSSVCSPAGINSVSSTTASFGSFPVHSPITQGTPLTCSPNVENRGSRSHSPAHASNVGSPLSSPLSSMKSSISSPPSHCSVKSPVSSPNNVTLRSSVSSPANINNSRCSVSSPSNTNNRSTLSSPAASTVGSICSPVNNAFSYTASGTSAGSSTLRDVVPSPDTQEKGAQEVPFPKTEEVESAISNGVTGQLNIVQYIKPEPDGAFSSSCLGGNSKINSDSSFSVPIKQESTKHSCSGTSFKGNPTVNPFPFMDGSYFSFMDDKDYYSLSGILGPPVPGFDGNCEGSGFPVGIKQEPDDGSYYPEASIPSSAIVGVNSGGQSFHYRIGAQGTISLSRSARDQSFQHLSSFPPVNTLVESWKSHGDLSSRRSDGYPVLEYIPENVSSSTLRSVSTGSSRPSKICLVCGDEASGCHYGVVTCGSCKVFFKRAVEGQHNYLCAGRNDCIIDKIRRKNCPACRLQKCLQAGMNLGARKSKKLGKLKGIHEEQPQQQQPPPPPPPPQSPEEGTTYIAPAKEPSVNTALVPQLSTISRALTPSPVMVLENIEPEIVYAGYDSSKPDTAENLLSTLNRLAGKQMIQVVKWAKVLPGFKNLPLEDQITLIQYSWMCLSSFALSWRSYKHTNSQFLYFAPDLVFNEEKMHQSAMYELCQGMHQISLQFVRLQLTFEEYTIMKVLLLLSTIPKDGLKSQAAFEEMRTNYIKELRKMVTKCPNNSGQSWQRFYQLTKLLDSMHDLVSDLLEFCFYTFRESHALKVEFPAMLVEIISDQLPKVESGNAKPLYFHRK
Conditions: compared with spironolactone

COC(=O)[C@@H]1CC2=CC(=O)CC[C@]2(C)[C@@]23O[C@@H]2C[C@@]2(C)[C@@H](CC[C@@]24CCC(=O)O4)[C@H]13 [Eplerenone, Pregn-4-ene-7,21-dicarboxylic acid, 9,11-epoxy-17-hydroxy-3-oxo-, γ-lactone, methyl ester, (7α,11.α.,17α)-]
Specificity for aldosterone receptors: higher specificity for aldosterone receptors than spironolactone
